SMILES strings stand for the structures. Numbers after ± are expanded uncertainties.

For two molecules, mass density results are on record in the NIST ThermoML archive (doi:10.1016/j.fluid.2018.01.023).

This series can be described thus: xn = mol fraction of the nth substance listed. The settings on record: 92 K, Liquid, Buoyancy - hydrostatic balance with magnetic suspension - one sinker.

With `CC` [ethane] + N#N, the mass density (in general, mass per unit of volume) was found to be 650.5 ± 1.2 kg/m3 (138.3 kPa, x1 = 0.967) and 651.3 ± 0.9 kg/m3 (1039.4 kPa, x1 = 0.952).
With `N#N` [nitrogen] + C, the mass density (159.1 kPa, x2 = 0.884) is given as 451 ± 0.7 kg/m3.
